Data taken from PubChem BioAssay AID330 (DTP/NCI, 2004).
Several values for one entry are separate records, joined by “and”; a condition that tells them apart may be missing. Equal values may be shown once. Toxic doses and inconclusive results are not listed. Peptide text beside a SMILES is read from it. * marks the point of attachment. Boc = CC(C)(C)OC(=O)*; NHNH2 = NN*

Test system: P388 leukemia ip, CD2F1 mice, survival T/C
Test: NCI In Vivo Anticancer Drug Screen. Data for tumor model P388 Leukemia (intraperitoneal) in CD2F1 (CDF1) mice
Settings: endpoint: median survival time, higher = longer survival
Summary of the method: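 Mice carrying the transplanted tumor received test compound or vehicle. Survival was recorded in each group, and the value is the treated-group measurement divided by that of the vehicle-treated control group.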

[1] = dose: 15.0 mg/kg/injection, schedule: Q01DX005 (ip), vehicle: saline with Tween-80
[2] = dose: 30.0 mg/kg/injection, schedule: Q01DX005 (ip), vehicle: saline with Tween-80
[3] = dose: 60.0 mg/kg/injection, schedule: Q01DX005 (ip), vehicle: saline with Tween-80
[4] = dose: 50.0 mg/kg/injection, schedule: Q01DX005 (ip), vehicle: saline with Tween-80
[5] = dose: 100.0 mg/kg/injection, schedule: Q01DX005 (ip), vehicle: saline with Tween-80
[6] = dose: 200.0 mg/kg/injection, schedule: Q01DX005 (ip), vehicle: saline with Tween-80
[7] = dose: 50.0 mg/kg/injection, schedule: Q01DX009 (ip), vehicle: Klucel (hydroxypropylcellulose) (HPC)
[8] = dose: 100.0 mg/kg/injection, schedule: Q01DX009 (ip), vehicle: Klucel (hydroxypropylcellulose) (HPC)
[9] = dose: 200.0 mg/kg/injection, schedule: Q01DX009 (ip), vehicle: Klucel (hydroxypropylcellulose) (HPC)
[10] = dose: 60.0 mg/kg/injection, schedule: Q01DX005 (ip), vehicle: Klucel (hydroxypropylcellulose) (HPC)
[11] = dose: 120.0 mg/kg/injection, schedule: Q01DX005 (ip), vehicle: Klucel (hydroxypropylcellulose) (HPC)
[12] = dose: 12.5 mg/kg/injection, schedule: Q01DX009 (ip), vehicle: saline with Tween-80
[13] = dose: 25.0 mg/kg/injection, schedule: Q01DX009 (ip), vehicle: saline with Tween-80
[14] = dose: 50.0 mg/kg/injection, schedule: Q01DX009 (ip), vehicle: saline with Tween-80
[15] = dose: 100.0 mg/kg/injection, schedule: Q01DX009 (ip), vehicle: saline with Tween-80
[16] = dose: 200.0 mg/kg/injection, schedule: Q01DX009 (ip), vehicle: saline with Tween-80
[17] = dose: 50.0 mg/kg/injection, schedule: Q01DX009 (ip), vehicle: saline
[18] = dose: 100.0 mg/kg/injection, schedule: Q01DX009 (ip), vehicle: saline
[19] = dose: 200.0 mg/kg/injection, schedule: Q01DX009 (ip), vehicle: saline
[20] = dose: 240.0 mg/kg/injection, schedule: Q01DX005 (ip), vehicle: Klucel (hydroxypropylcellulose) (HPC)

c1ccc(-c2c3ccccc3c(-c3ccccc3)c3c(-c4ccccc4)c4ccccc4c(-c4ccccc4)c23)cc1
T/C [1]: 105 % of control | T/C [2]: 106 % of control | T/C [3]: 91 % of control and 94 % of control

O=c1c(/C=C\Nc2ccccc2)c(-c2ccccc2)c1=O
T/C (dose: 100.0 mg/kg/injection, schedule: Q01DX001 (ip), vehicle: saline with Tween-80): 100 % of control | T/C (dose: 200.0 mg/kg/injection, schedule: Q01DX001 (ip), vehicle: saline with Tween-80): 92 % of control | T/C (dose: 400.0 mg/kg/injection, schedule: Q01DX001 (ip), vehicle: saline with Tween-80): 92 % of control

O=C(OC(Cc1ccccc1)C(=O)O)c1ccc([N+](=O)[O-])cc1 (stereo not given)
T/C (dose: 50.0 mg/kg/injection, schedule: Q01DX001 (ip), vehicle: Klucel (hydroxypropylcellulose) (HPC)): 97 % of control | T/C (dose: 100.0 mg/kg/injection, schedule: Q01DX001 (ip), vehicle: Klucel (hydroxypropylcellulose) (HPC)): 111 % of control | T/C (dose: 200.0 mg/kg/injection, schedule: Q01DX001 (ip), vehicle: Klucel (hydroxypropylcellulose) (HPC)): 109 % of control

CC(O)CCc1nc2ccccc2[nH]1 (stereo not given)
T/C [4]: 95 % of control | T/C [5]: 100 % of control | T/C [6]: 95 % of control

Cc1c(N2CCCC2)cc2c(c1-n1cccc1)C(C)(C)CC2(C)C
T/C [7]: 102 % of control | T/C [8]: 96 % of control | T/C [9]: 96 % of control

O=C(O)c1c(Cl)n(Cc2cc(Cl)ccc2Cl)c2ccccc12
T/C [10]: 95 % of control | T/C [11]: 88 % of control

CC(C)NC(=O)OCc1cc(-c2ccccc2)n(C)c1-c1ccccc1
T/C (dose: 6.25 mg/kg/injection, schedule: Q01DX009 (ip), vehicle: distilled water + Tween-80): 104 % of control and 98 % of control | T/C (dose: 12.5 mg/kg/injection, schedule: Q01DX009 (ip), vehicle: distilled water + Tween-80): 107 % of control and 110 % of control and 113 % of control | T/C (dose: 25.0 mg/kg/injection, schedule: Q01DX009 (ip), vehicle: distilled water + Tween-80): 117 % of control and 120 % of control and 122 % of control | T/C (dose: 50.0 mg/kg/injection, schedule: Q01DX009 (ip), vehicle: distilled water + Tween-80): 105 % of control and 114 % of control and 116 % of control | T/C (dose: 100.0 mg/kg/injection, schedule: Q01DX009 (ip), vehicle: distilled water + Tween-80): 92 % of control

CC1(C)OC2OC3C(CN)OC(c4ccccc4)OC3C2O1 (stereo not given)
T/C [4]: 105 % of control | T/C [5]: 103 % of control | T/C [6]: 86 % of control

N#CN=C1N=S(=O)(c2ccccc2)c2ccccc21 (stereo not given)
T/C [7]: 103 % of control | T/C [8]: 100 % of control | T/C [9]: 101 % of control

Cc1ccccc1N1C(=O)C(C)(C)OC1=S
T/C [4]: 97 % of control | T/C [5]: 99 % of control | T/C [6]: 103 % of control

O=C(O)C(O)COc1nsnc1N1CCOCC1 (stereo not given)
T/C [7]: 107 % of control | T/C [8]: 102 % of control | T/C [9]: 107 % of control

CC(=O)NC(Cc1ccccc1)C(=O)NC(Cc1ccccc1)C(=O)O (stereo not drawn) (Ac-Phe-Phe-OH; configuration not given here)
T/C [4]: 107 % of control | T/C [5]: 103 % of control | T/C [6]: 94 % of control

COC1OC(COC(=O)c2ccccc2)C=C(OC(=O)c2ccccc2)C1=O (stereo not given)
T/C (dose: 6.25 mg/kg/injection, schedule: Q01DX009 (ip), vehicle: saline with Tween-80): 103 % of control | T/C [12]: 105 % of control | T/C [13]: 103 % of control | T/C [14]: 102 % of control and 113 % of control and 114 % of control | T/C [15]: 105 % of control and 92 % of control | T/C [16]: 114 % of control and 96 % of control

CC1(C)N=c2cc3c(cc2N1c1ccc(Cl)cc1)=Nc1ccccc1N3c1ccc(Cl)cc1
T/C (dose: 7.5 mg/kg/injection, schedule: Q01DX005 (ip), vehicle: saline with Tween-80): 99 % of control | T/C [1]: 90 % of control | T/C [2]: 87 % of control | T/C [3]: 89 % of control

O=C1C2CCN(CC2)C1(CO)CO
T/C [17]: 102 % of control | T/C [18]: 105 % of control | T/C [19]: 105 % of control

S=C(Nc1ccc(N=Nc2ccccc2)cc1)SCc1ccccc1
T/C (dose: 100.0 mg/kg/injection, schedule: Q04DX003 (ip), vehicle: saline): 98 % of control | T/C (dose: 200.0 mg/kg/injection, schedule: Q04DX003 (ip), vehicle: saline): 92 % of control | T/C (dose: 400.0 mg/kg/injection, schedule: Q04DX003 (ip), vehicle: saline): 91 % of control

O=C(NCC1CC1)NC(=O)c1c(F)cccc1Cl
T/C [10]: 102 % of control | T/C [11]: 106 % of control | T/C [20]: 106 % of control

CCC(=O)c1nc(N)[nH]c1CC
T/C (dose: 2.5 mg/kg/injection, schedule: Q01DX005 (ip), vehicle: Klucel (hydroxypropylcellulose) (HPC)): 101 % of control | T/C (dose: 5.0 mg/kg/injection, schedule: Q01DX005 (ip), vehicle: Klucel (hydroxypropylcellulose) (HPC)): 93 % of control | T/C (dose: 10.0 mg/kg/injection, schedule: Q01DX005 (ip), vehicle: Klucel (hydroxypropylcellulose) (HPC)): 102 % of control

O=C(NCCCCCCNC(=O)C1CCCN1C(=O)OCc1ccccc1)C1CCCN1C(=O)OCc1ccccc1 (stereo not given)
T/C [10]: 100 % of control | T/C [11]: 98 % of control | T/C [20]: 100 % of control

Cc1ccc(S(=O)(O)=S)cc1
T/C [17]: 101 % of control | T/C [18]: 107 % of control | T/C (dose: 100.0 mg/kg/injection, schedule: Q04DX002 (ip), vehicle: saline): 105 % of control | T/C [19]: 115 % of control | T/C (dose: 200.0 mg/kg/injection, schedule: Q04DX002 (ip), vehicle: saline): 101 % of control | T/C (dose: 400.0 mg/kg/injection, schedule: Q04DX002 (ip), vehicle: saline): 102 % of control

Nc1ccc2nc(N)sc2c1
T/C [17]: 100 % of control | T/C [18]: 93 % of control | T/C [19]: 101 % of control

CC1(C)CC(=NNC(N)=S)CC(C)(C)N1
T/C [17]: 94 % of control | T/C [18]: 97 % of control | T/C [19]: 99 % of control

CC(C)(C)OC(=O)NC(Cc1c[nH]c2ccccc12)C(=O)NC(Cc1ccccc1)C(=O)NN (stereo not drawn) (Boc-Trp-Phe-NHNH2; configuration not given here)
T/C [7]: 92 % of control | T/C [8]: 88 % of control | T/C [9]: 91 % of control

CCC1CN1P(=O)(N(CC)CC)N1CC1CC (stereo not given)
T/C [17]: 109 % of control | T/C [18]: 170 % of control

CC(=O)Nc1ccc(OCCOCCOc2ccc(NC(C)=O)cc2)cc1
T/C [14]: 92 % of control | T/C [15]: 94 % of control | T/C [16]: 91 % of control

O=[N+]([O-])c1ccc(N2c3ccccc3SC2c2ccco2)c([N+](=O)[O-])c1 (stereo not given)
T/C (dose: 1.5 mg/kg/injection, schedule: Q01DX005 (ip), vehicle: saline with Tween-80): 102 % of control | T/C (dose: 3.0 mg/kg/injection, schedule: Q01DX005 (ip), vehicle: saline with Tween-80): 102 % of control | T/C (dose: 6.0 mg/kg/injection, schedule: Q01DX005 (ip), vehicle: saline with Tween-80): 91 % of control

O=C(c1ccc(C(=O)N2CC2)cc1)N1CC1
T/C (dose: 10.0 mg/kg/injection, schedule: Q04DX003 (ip), vehicle: saline with Tween-80): 118 % of control | T/C (dose: 20.0 mg/kg/injection, schedule: Q04DX003 (ip), vehicle: saline with Tween-80): 109 % of control

CCOP(=O)(O)CP(=O)(O)OCC.CCOP(=O)(O)CP(=O)(O)OCC.[Cr]
T/C (dose: 50.0 mg/kg/injection, schedule: Q04DX003 (ip), vehicle: saline with Tween-80): 102 % of control | T/C (dose: 100.0 mg/kg/injection, schedule: Q04DX003 (ip), vehicle: saline with Tween-80): 98 % of control | T/C (dose: 200.0 mg/kg/injection, schedule: Q04DX003 (ip), vehicle: saline with Tween-80): 99 % of control

C1CCNCC1.O=C([CH-]C(=O)C(F)(F)F)c1cccs1.O=C([CH-]C(=O)C(F)(F)F)c1cccs1.O=C([CH-]C(=O)C(F)(F)F)c1cccs1.O=C([CH-]C(=O)C(F)(F)F)c1cccs1.[Eu+3]
T/C [12]: 95 % of control | T/C (dose: 25.0 mg/kg/injection, schedule: Q01DX009 (ip), vehicle: Klucel (hydroxypropylcellulose) (HPC)): 105 % of control | T/C [13]: 95 % of control | T/C [7]: 109 % of control | T/C [14]: 99 % of control | T/C [8]: 109 % of control | T/C [15]: 89 % of control

CC(=O)Nc1ccc(S(=O)(=O)N/N=C/C(=O)O)cc1
T/C (dose: 3.13 mg/kg/injection, schedule: Q01DX009 (ip), vehicle: other): 101 % of control | T/C (dose: 6.25 mg/kg/injection, schedule: Q01DX009 (ip), vehicle: other): 111 % of control | T/C (dose: 12.5 mg/kg/injection, schedule: Q01DX009 (ip), vehicle: other): 118 % of control
